Test results reported in PubChem BioAssay (NCI).
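Cultured in 96-well plates, cells were exposed to test compound for 48 hours across five concentrations. The concentration for full growth arrest is given as TGI.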

Key:
Assay in all cases: DTP human tumour cell line panel, 48 h
OVCAR-3 ovarian = test system: OVCAR-3 ovarian
NCI-H522 lung = test system: NCI-H522 lung
NCI-H460 lung = test system: NCI-H460 lung
MALME-3M melanoma = test system: MALME-3M melanoma
MOLT-4 leukemia = test system: MOLT-4 leukemia
SN12C renal = test system: SN12C renal
BT-549 breast = test system: BT-549 breast
UO-31 renal = test system: UO-31 renal
HOP-92 NSCLC = test system: HOP-92 NSCLC
HL-60(TB) leukemia = test system: HL-60(TB) leukemia
MDA-N = test system: MDA-N
NCI/ADR-RES ovarian = test system: NCI/ADR-RES ovarian
HCT-116 colon = test system: HCT-116 colon
UACC-257 melanoma = test system: UACC-257 melanoma
K-562 leukemia = test system: K-562 leukemia
SNB-19 CNS = test system: SNB-19 CNS
MDA-MB-231 breast = test system: MDA-MB-231 breast
KM12 colon = test system: KM12 colon
U251 CNS = test system: U251 CNS
IGROV1 ovarian = test system: IGROV1 ovarian
RXF 393 renal = test system: RXF 393 renal
SF-539 CNS = test system: SF-539 CNS
OVCAR-8 ovarian = test system: OVCAR-8 ovarian
EKVX NSCLC = test system: EKVX NSCLC
M14 melanoma = test system: M14 melanoma
SK-MEL-5 melanoma = test system: SK-MEL-5 melanoma
A549 NSCLC = test system: A549 NSCLC
TK-10 renal = test system: TK-10 renal
CAKI-1 renal = test system: CAKI-1 renal
HCC-2998 colon = test system: HCC-2998 colon
PC-3 prostate = test system: PC-3 prostate
HS 578T breast = test system: HS 578T breast
LOX IMVI melanoma = test system: LOX IMVI melanoma
MDA-MB-435 = test system: MDA-MB-435
T-47D breast = test system: T-47D breast
COLO 205 colon = test system: COLO 205 colon
SNB-75 CNS = test system: SNB-75 CNS
HCT-15 colon = test system: HCT-15 colon
NCI-H226 lung = test system: NCI-H226 lung
MCF7 breast = test system: MCF7 breast
SR leukemia = test system: SR leukemia
SW-620 colon = test system: SW-620 colon
SK-MEL-28 melanoma = test system: SK-MEL-28 melanoma
DU-145 prostate = test system: DU-145 prostate
HT29 colon = test system: HT29 colon
OVCAR-5 ovarian = test system: OVCAR-5 ovarian
786-0 renal = test system: 786-0 renal
SK-OV-3 ovarian = test system: SK-OV-3 ovarian
A498 renal = test system: A498 renal
OVCAR-4 ovarian = test system: OVCAR-4 ovarian
SK-MEL-2 melanoma = test system: SK-MEL-2 melanoma
RPMI-8226 leukemia = test system: RPMI-8226 leukemia
SF-268 CNS = test system: SF-268 CNS
UACC-62 melanoma = test system: UACC-62 melanoma
CCRF-CEM leukemia = test system: CCRF-CEM leukemia
NCI-H23 lung = test system: NCI-H23 lung
SF-295 CNS = test system: SF-295 CNS
HOP-62 NSCLC = test system: HOP-62 NSCLC
ACHN renal = test system: ACHN renal

With `Cc1c(C)c(C)c(-n2c(=O)n(C)c(=O)n2-n2c(=O)n(C)c(=O)n2-c2c(C)c(C)c(C)c(C)c2C)c(C)c1C` the TGI (OVCAR-3 ovarian) was > 100 µM, the TGI (NCI-H522 lung) was > 100 µM and the TGI (NCI-H460 lung) was > 100 µM. The TGI (MALME-3M melanoma) was > 100 µM, the TGI (MOLT-4 leukemia) was > 100 µM and the TGI (SN12C renal) was > 100 µM. The TGI (BT-549 breast) was > 100 µM, the TGI (UO-31 renal) was > 100 µM and the TGI (HOP-92 NSCLC) was > 100 µM. For the same compound, the TGI (HL-60(TB) leukemia) was 68.7 µM, the TGI (MDA-N) was > 100 µM and the TGI (NCI/ADR-RES ovarian) was > 100 µM. For the same compound, the TGI (HCT-116 colon) was > 100 µM, the TGI (UACC-257 melanoma) was > 100 µM and the TGI (K-562 leukemia) was > 100 µM. The TGI (SNB-19 CNS) was > 100 µM, the TGI (MDA-MB-231 breast) was > 100 µM and the TGI (KM12 colon) was > 100 µM. For the same compound, the TGI (U251 CNS) was > 100 µM, the TGI (IGROV1 ovarian) was > 100 µM and the TGI (RXF 393 renal) was > 100 µM. The TGI (SF-539 CNS) was > 100 µM, the TGI (OVCAR-8 ovarian) was > 100 µM and the TGI (EKVX NSCLC) was > 100 µM. For the same compound, the TGI (M14 melanoma) was > 100 µM, the TGI (SK-MEL-5 melanoma) was > 100 µM and the TGI (A549 NSCLC) was > 100 µM. The TGI (TK-10 renal) was > 100 µM, the TGI (CAKI-1 renal) was > 100 µM and the TGI (HCC-2998 colon) was > 100 µM. For the same compound, the TGI (PC-3 prostate) was > 100 µM, the TGI (HS 578T breast) was > 100 µM and the TGI (LOX IMVI melanoma) was > 100 µM. For the same compound, the TGI (MDA-MB-435) was > 100 µM, the TGI (T-47D breast) was > 100 µM and the TGI (COLO 205 colon) was > 100 µM. The TGI (SNB-75 CNS) was > 100 µM, the TGI (HCT-15 colon) was > 100 µM and the TGI (NCI-H226 lung) was > 100 µM. The TGI (MCF7 breast) was > 100 µM, the TGI (SR leukemia) was > 100 µM and the TGI (SW-620 colon) was > 100 µM. For the same compound, the TGI (SK-MEL-28 melanoma) was > 100 µM, the TGI (DU-145 prostate) was > 100 µM and the TGI (HT29 colon) was > 100 µM. For the same compound, the TGI (OVCAR-5 ovarian) was > 100 µM, the TGI (786-0 renal) was > 100 µM and the TGI (SK-OV-3 ovarian) was > 100 µM. The TGI (A498 renal) was > 100 µM, the TGI (OVCAR-4 ovarian) was > 100 µM and the TGI (SK-MEL-2 melanoma) was > 100 µM. The TGI (RPMI-8226 leukemia) was > 100 µM, the TGI (SF-268 CNS) was > 100 µM and the TGI (UACC-62 melanoma) was > 100 µM.

In the case of `O=C(c1ccccc1)n1c(Cc2ccccc2)nc2cc(C34CC5CC(CC(C5)C3)C4)ccc21`, the TGI (NCI-H522 lung) is reported as > 100 µM, the TGI (NCI-H460 lung) is reported as > 100 µM and the TGI (CCRF-CEM leukemia) is reported as > 100 µM. For the same compound, the TGI (MALME-3M melanoma) was > 100 µM, the TGI (MOLT-4 leukemia) was > 100 µM and the TGI (SN12C renal) was > 100 µM. For the same compound, the TGI (BT-549 breast) was > 100 µM, the TGI (UO-31 renal) was > 100 µM and the TGI (HOP-92 NSCLC) was > 100 µM. For the same compound, the TGI (HL-60(TB) leukemia) was > 100 µM, the TGI (MDA-N) was > 100 µM and the TGI (NCI/ADR-RES ovarian) was > 100 µM. The TGI (HCT-116 colon) was > 100 µM, the TGI (UACC-257 melanoma) was > 100 µM and the TGI (K-562 leukemia) was > 100 µM. The TGI (SNB-19 CNS) was > 100 µM, the TGI (MDA-MB-231 breast) was > 100 µM and the TGI (KM12 colon) was > 100 µM. For the same compound, the TGI (U251 CNS) was > 100 µM, the TGI (IGROV1 ovarian) was > 100 µM and the TGI (RXF 393 renal) was > 100 µM. The TGI (OVCAR-8 ovarian) was > 100 µM, the TGI (EKVX NSCLC) was > 100 µM and the TGI (M14 melanoma) was > 100 µM. The TGI (SK-MEL-5 melanoma) was 56.5 µM, the TGI (A549 NSCLC) was > 100 µM and the TGI (TK-10 renal) was > 100 µM. For the same compound, the TGI (CAKI-1 renal) was > 100 µM, the TGI (HCC-2998 colon) was > 100 µM and the TGI (PC-3 prostate) was > 100 µM. The TGI (HS 578T breast) was > 100 µM, the TGI (LOX IMVI melanoma) was > 100 µM and the TGI (NCI-H23 lung) was > 100 µM. For the same compound, the TGI (MDA-MB-435) was > 100 µM, the TGI (T-47D breast) was > 100 µM and the TGI (COLO 205 colon) was 58.2 µM. The TGI (SF-295 CNS) was > 100 µM, the TGI (SNB-75 CNS) was > 100 µM and the TGI (HCT-15 colon) was 48.5 µM. The TGI (NCI-H226 lung) was > 100 µM, the TGI (MCF7 breast) was 90 µM and the TGI (SR leukemia) was > 100 µM. For the same compound, the TGI (SW-620 colon) was > 100 µM, the TGI (SK-MEL-28 melanoma) was > 100 µM and the TGI (DU-145 prostate) was > 100 µM. For the same compound, the TGI (HT29 colon) was > 100 µM, the TGI (OVCAR-5 ovarian) was > 100 µM and the TGI (HOP-62 NSCLC) was > 100 µM. The TGI (786-0 renal) was > 100 µM, the TGI (SK-OV-3 ovarian) was > 100 µM and the TGI (ACHN renal) was > 100 µM. The TGI (A498 renal) was > 100 µM, the TGI (OVCAR-4 ovarian) was > 100 µM and the TGI (SK-MEL-2 melanoma) was > 100 µM. The TGI (RPMI-8226 leukemia) was > 100 µM, the TGI (SF-268 CNS) was > 100 µM and the TGI (UACC-62 melanoma) was > 100 µM.

In the case of `CC[C@@]1(O)C(=O)OCc2c1cc1n(c2=O)Cc2c-1nc1ccccc1c2/C=N\NC(=O)C(N)CO` (some centres undefined), the TGI (OVCAR-3 ovarian) is reported as > 100 µM, the TGI (NCI-H522 lung) is reported as > 42.2 µM and the TGI (NCI-H460 lung) is reported as 25.3 µM. For the same compound, the TGI (CCRF-CEM leukemia) was > 19.7 µM, the TGI (MALME-3M melanoma) was > 100 µM and the TGI (MOLT-4 leukemia) was 1.58 µM. For the same compound, the TGI (SN12C renal) was 25.3 µM, the TGI (BT-549 breast) was > 100 µM and the TGI (UO-31 renal) was 11 µM. For the same compound, the TGI (HOP-92 NSCLC) was 50.5 µM, the TGI (HL-60(TB) leukemia) was > 21 µM and the TGI (MDA-N) was > 100 µM. For the same compound, the TGI (NCI/ADR-RES ovarian) was 9.2 µM, the TGI (HCT-116 colon) was 22.8 µM and the TGI (UACC-257 melanoma) was > 65.8 µM. For the same compound, the TGI (K-562 leukemia) was > 100 µM, the TGI (SNB-19 CNS) was > 100 µM and the TGI (MDA-MB-231 breast) was > 100 µM. The TGI (KM12 colon) was > 44 µM, the TGI (U251 CNS) was > 20.9 µM and the TGI (IGROV1 ovarian) was > 100 µM. The TGI (RXF 393 renal) was 7.73 µM, the TGI (SF-539 CNS) was 0.763 µM and the TGI (OVCAR-8 ovarian) was 39.6 µM. The TGI (EKVX NSCLC) was > 100 µM, the TGI (M14 melanoma) was 7.51 µM and the TGI (SK-MEL-5 melanoma) was 2.55 µM. For the same compound, the TGI (A549 NSCLC) was > 100 µM, the TGI (TK-10 renal) was > 100 µM and the TGI (CAKI-1 renal) was > 27.2 µM. The TGI (HCC-2998 colon) was > 100 µM, the TGI (PC-3 prostate) was > 100 µM and the TGI (HS 578T breast) was > 100 µM. The TGI (LOX IMVI melanoma) was 6.15 µM, the TGI (NCI-H23 lung) was 5.38 µM and the TGI (MDA-MB-435) was > 31.6 µM. For the same compound, the TGI (T-47D breast) was > 100 µM, the TGI (COLO 205 colon) was > 100 µM and the TGI (SF-295 CNS) was > 100 µM. For the same compound, the TGI (SNB-75 CNS) was 0.312 µM, the TGI (HCT-15 colon) was > 100 µM and the TGI (NCI-H226 lung) was 23.2 µM. For the same compound, the TGI (MCF7 breast) was 21.3 µM, the TGI (SR leukemia) was 3.59 µM and the TGI (SW-620 colon) was > 100 µM. The TGI (SK-MEL-28 melanoma) was > 100 µM, the TGI (DU-145 prostate) was > 100 µM and the TGI (HT29 colon) was > 90.4 µM. The TGI (OVCAR-5 ovarian) was > 100 µM, the TGI (HOP-62 NSCLC) was 9.35 µM and the TGI (786-0 renal) was 13 µM. For the same compound, the TGI (SK-OV-3 ovarian) was > 100 µM, the TGI (A498 renal) was 12.2 µM and the TGI (OVCAR-4 ovarian) was > 100 µM. The TGI (SK-MEL-2 melanoma) was > 100 µM, the TGI (RPMI-8226 leukemia) was > 73.2 µM and the TGI (SF-268 CNS) was 7.36 µM. It also gave a TGI (UACC-62 melanoma) of 0.419 µM.
